The subject of the experiment is NLRP3 inflammasome. Description: NLRP3 inflammasome activation: ASC-SPECK formation in gramicidin-stimulated THP-1 cells. The class given is cell-based. The settings on record: Homo sapiens, THP-1, inhibition of ASC SPECK formation; PMA-treated human monocytic THP-1 cells, compound 1 h before 12.5 μg/ml gramicidin, 3-hour treatment. The essentials: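 Undifferentiated human THP-1 cells primed overnight with 10 ng/ml PMA, then given compounds 1 h before 12.5 μg/ml gramicidin for 3 h at 37° C in RPMI with 0.01% BSA. Fixed cells immunostained for ASC with DRAQ5 nuclear counterstain; DRAQ5-positive cells with ASC specks counted by high-content imaging; EC50 from curve fitting.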

Broadly, the EC50 is the concentration giving half of the maximal effect. Turning to `Cc1cc(C(F)(F)F)cc(O)c1-c1cnc2cn(C[C@H]3CNC(=O)C3)nc2n1` [Example 7, (R)-4-((6-(2-hydroxy-6-methyl-4-(trifluoromethyl)phenyl)-2H-pyrazolo[3,4-b]pyrazin-2-yl)methyl)pyrrolidin-2-one], the concentration for a half-maximal effect (EC50) stood at 46 nM.

As for `Cc1cc(C(F)(F)F)cc(O)c1-c1cnc2cn(C34CC(C#N)(C3)C4)nc2n1` [Example 8, 3-(6-(2-hydroxy-6-methyl-4-(trifluoromethyl)phenyl)-2H-pyrazolo[3,4-b]pyrazin-2-yl)bicyclo[1.1.1]pentane-1-carbonitrile], the half-maximal effective concentration (EC50) amounted to 38 nM.

Consider `Cc1cc(C(F)(F)F)cc(O)c1-c1cnc2cn([C@@H]3[C@@H]4COC[C@@H]43)nc2n1` [Example 9, 2-(2-((1R,5S,6S)-3-oxabicyclo[3.1.0]hexan-6-yl)-2H-pyrazolo[3,4-b]pyrazin-6-yl)-3-methyl-5-(trifluoromethyl)phenol], for which the 50% effective concentration (EC50) came out at 59 nM.

For `Cc1cc(C(F)(F)F)cc(O)c1-c1cnc2cn([C@H]3[C@@H]4COC[C@@H]43)nc2n1` [Example 10, 2-(2-((1R,5S,6R)-3-oxabicyclo[3.1.0]hexan-6-yl)-2H-pyrazolo[3,4-b]pyrazin-6-yl)-3-methyl-5-(trifluoromethyl)phenol], the concentration giving a half-maximal response (EC50) was 34 nM.

As to `Cc1cc(C(F)(F)F)cc(O)c1-c1cnc2cn([C@H]3CC[C@@H](C#N)CC3)nc2n1` [Example 11, (1S,4S)-4-(6-(2-hydroxy-6-methyl-4-(trifluoromethyl)phenyl)-2H-pyrazolo[3,4-b]pyrazin-2-yl)cyclohexane-1-carbonitrile], the half-maximal effective concentration (EC50) turned out to be 1500 nM.

Turning to `Cc1cc(C(F)(F)F)cc(O)c1-c1cnc2cn(CC(C)(C)C#N)nc2n1` [Example 12, 3-(6-(2-hydroxy-6-methyl-4-(trifluoromethyl)phenyl)-2H-pyrazolo[3,4-b]pyrazin-2-yl)-2,2-dimethylpropanenitrile], the EC50 amounted to 658 nM.

For the compound `Cc1cc(C(F)(F)F)cc(O)c1-c1cnc2cn(CC3(C#N)CCC3)nc2n1` [Example 13, 1-((6-(2-hydroxy-6-methyl-4-(trifluoromethyl)phenyl)-2H-pyrazolo[3,4-b]pyrazin-2-yl)methyl)cyclobutane-1-carbonitrile], the EC50 is 264 nM.

For `Cc1cc(C(F)(F)F)cc(O)c1-c1cnc2cn(C34COCC(C3)C4)nc2n1` [Example 14, 2-(2-(3-oxabicyclo[3.1.1]heptan-1-yl)-2H-pyrazolo[3,4-b]pyrazin-6-yl)-3-methyl-5-(trifluoromethyl)phenol], the concentration giving a half-maximal response (EC50) amounted to 154 nM.

`Cc1cc(C(F)(F)F)cc(O)c1-c1cnc2cn(C34CCOC(C)(C3)C4)nc2n1` [Example 15, 3-methyl-2-(2-(1-methyl-2-oxabicyclo[3.1.1]heptan-5-yl)-2H-pyrazolo[3,4-b]pyrazin-6-yl)-5-(trifluoromethyl)phenol]: the half-maximal effective concentration (EC50) amounted to 84 nM.

`Cc1cc(C(F)(F)F)cc(O)c1-c1cnc2cn([C@H]3C[C@H](F)C3)nc2n1` [Example 16, 2-(2-((1R,3R)-3-fluorocyclobutyl)-2H-pyrazolo[3,4-b]pyrazin-6-yl)-3-methyl-5-(trifluoromethyl)phenol]: the EC50 turned out to be 25 nM.

In the case of `Cc1cc(C(F)(F)F)cc(O)c1-c1cnc2cn(C34COC(C3)C4)nc2n1` [Example 17, 2-(2-(2-oxabicyclo[2.1.1]hexan-4-yl)-2H-pyrazolo[3,4-b]pyrazin-6-yl)-3-methyl-5-(trifluoromethyl)phenol], the concentration for a half-maximal effect (EC50) was 55 nM.

With `Cc1cc(C(F)(F)F)cc(O)c1-c1cnc2cn([C@H]3C[C@@H](CC#N)C3)nc2n1` [Example 18, 2-((1s,3s)-3-(6-(2-hydroxy-6-methyl-4-(trifluoromethyl)phenyl)-2H-pyrazolo[3,4-b]pyrazin-2-yl)cyclobutyl)acetonitrile], the EC50 worked out at 465 nM.

With `Cc1cc(C(F)(F)F)cc(O)c1-c1cnc2cn(C34CCC(O)(C3)C4)nc2n1` [Example 26, 4-[6-[2-hydroxy-6-methyl-4-(trifluoromethyl)phenyl]pyrazolo[3,4-b]pyrazin-2-yl]bicyclo[2.1.1]hexan-1-ol], the 50% effective concentration (EC50) is 51 nM.

(Values after patent US20250195511A1, “INDAZOLE DERIVATIVES USEFUL AS INHIBITORS OF NOD-LIKE RECEPTOR PROTEIN 3” (Merck Sharp & Dohme LLC, priority 2023, published 2025).)
